Measured values taken from publication PMC4610306 (Journal of Medicinal Chemistry, 2015).
Entries after “also recorded” stand apart in the source; their conditions may differ.

Legend:
PAD2 = PAD2 (Homo sapiens, UniProt Q9Y2J8); experiment: Inactivation kinetics; assay type: biochemical
mouse neutrophils = experiment: NET formation, PMA-stimulated neutrophils, DNA/neutrophil elastase overlap assay; assay type: cell-based; settings: Cl-amidine as reference
U2OS cells = experiment: Cell viability, colorimetric XTT assay; assay type: cell-based, human
[1] = Murine hepatic microsome stability assay; assay type: in vitro ADME, mouse

PAD2, sequence (Q9Y2J8 whole entry): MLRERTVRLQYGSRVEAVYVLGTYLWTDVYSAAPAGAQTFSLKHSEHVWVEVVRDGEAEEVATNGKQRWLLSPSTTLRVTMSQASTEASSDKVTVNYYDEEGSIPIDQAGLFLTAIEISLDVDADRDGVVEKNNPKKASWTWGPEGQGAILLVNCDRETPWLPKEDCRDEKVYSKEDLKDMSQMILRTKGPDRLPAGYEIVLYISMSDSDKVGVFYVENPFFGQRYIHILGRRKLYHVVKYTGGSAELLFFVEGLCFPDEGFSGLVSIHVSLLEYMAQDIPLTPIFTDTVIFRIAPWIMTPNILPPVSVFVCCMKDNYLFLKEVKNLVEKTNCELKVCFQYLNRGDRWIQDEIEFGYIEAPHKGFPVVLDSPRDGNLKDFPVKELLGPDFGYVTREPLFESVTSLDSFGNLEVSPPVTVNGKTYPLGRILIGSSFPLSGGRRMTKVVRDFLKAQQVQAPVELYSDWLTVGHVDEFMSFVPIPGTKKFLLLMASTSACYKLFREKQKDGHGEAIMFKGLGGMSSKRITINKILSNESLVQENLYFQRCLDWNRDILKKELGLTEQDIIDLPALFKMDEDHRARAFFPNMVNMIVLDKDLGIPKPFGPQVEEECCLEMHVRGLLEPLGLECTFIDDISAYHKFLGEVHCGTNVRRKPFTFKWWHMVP

Structure (SMILES)	kinact/KI (PAD2)	inhibition of NET formation (mouse neutrophils)	EC50 improvement over parent compound Cl-amidine (U2OS cells)	further results
CC(C)(C)n1nnc([C@H](CCCNC(=N)CCl)NC(=O)c2ccccc2)n1 [Compound 6, tetrazole tert-butyl Cl-amidine]	125 M⁻¹ s⁻¹	–	–	–
CC(C)(C)n1nnc([C@H](CCCNC(=N)CF)NC(=O)c2ccccc2)n1 [Compound 7, tetrazole tert-butyl-F-amidine]	108 M⁻¹ s⁻¹	–	–	–
CC(C)(C)n1nnc([C@H](CCCNC(=N)CCl)NC(=O)c2ccc(-c3ccccc3)cc2)n1 [Compound 13, biphenyl tetrazole tert-butyl Cl-amidine]	–	significantly more potent than Cl-amidine; also recorded: significantly reduces NET formation compared to Cl-amidine	16 fold	effect on cell growth / cell viability (U2OS cells; 20 μM, 72 h, XTT): completely abolished cell growth; also recorded: completely abolishes the growth
CC(C)(C)n1nnc([C@H](CCCNC(=N)CF)NC(=O)c2ccc(-c3ccccc3)cc2)n1 [Compound 14, biphenyl tetrazole tert-butyl-F-amidine]	–	–	3.5 fold	–
CC(C)(C)n1nnc([C@H](CCCNC(=N)CCl)NC(=O)c2ccccc2C(=O)O)n1 [Compound 21, o-carboxyl tetrazole tert-butyl Cl-amidine]	–	inhibits NET formation only at very high concentrations; also recorded: inhibits NET formation at higher doses	–	stability / half-life in mouse hepatic microsomes [1]: half-life mimics those obtained for the fluoro analogs
N=C(CF)NCCC[C@H](NC(=O)c1ccccc1)C(N)=O [F-amidine, reference compound]	6.33 M⁻¹ s⁻¹	–	–	–
